{
  "source": "paper PMC9026741",
  "about": "(Bioorganic chemistry, 2020)",
  "origin": "cited, not measured here",
  "biological_target": "T1, Nrp1 (Homo sapiens, UniProt O14786)",
  "T1 sequence (O14786 274-586)": "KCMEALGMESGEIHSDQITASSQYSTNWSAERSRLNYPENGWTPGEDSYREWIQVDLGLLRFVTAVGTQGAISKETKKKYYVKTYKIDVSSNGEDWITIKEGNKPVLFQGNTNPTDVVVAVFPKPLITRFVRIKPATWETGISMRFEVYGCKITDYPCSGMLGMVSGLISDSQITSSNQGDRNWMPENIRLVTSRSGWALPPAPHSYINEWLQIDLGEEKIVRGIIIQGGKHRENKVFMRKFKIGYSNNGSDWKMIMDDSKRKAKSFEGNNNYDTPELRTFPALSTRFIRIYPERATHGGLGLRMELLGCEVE",
  "settings": "Nrp1 over Nrp2",
  "data": [
    {"substance": "ATWLPPR", "values": [
      {"measurement": "preference for Nrp1", "value": "two-fold preference for Nrp1"}
    ]}
  ]
}
